Laboratory results: patent US8937183B2, “Detection of hydrogen peroxide” (Promega Corporation, priority 2011, dated 2015)

What was measured:
[1] = Signal strength differences due to reaction pH and buffer composition (hydrogen peroxide, D-cysteine conversion, LDR); assay type: biochemical; conditions: for Net Average Signals at 15 Minutes / Net Average Signals at 60 Minutes / Net Average Signals at 105 Minutes: 100 μl of 10 μM H2O2 added
Protocol: A 30 μl sample of 4 mg/ml PBI 4458 in DMSO was diluted to 1.5 ml with Nanopure water, and 50 μl added to wells A1-12 and E1-12 of a microtiter plate. A 30 μl sample of 4 mg/ml PBI 4472 in DMSO was diluted to 1.5 ml with Nanopure, and 50 μl added to wells B1-12 and F1-12 of the plate. A 30 μl sample of 4 mg/ml PBI 4480 in DMSO was diluted to 1.5 ml with Nanopure water, and 50 μl added to wells C1-12 and G1-12 of the plate. A 30 μl sample of 4 mg/ml PBI 4481 in DMSO was diluted to 1.5 ml with Nanopure water, and 50 μl added to wells D1-12 and H1-12 of the plate. To the plate, a 50 μl sample of 200 mM KHPO4, pH 7.4 was added to wells A1-D4; 50 μl 200 mM Tris buffer, pH 7.4 was added to wells A5-D8; 50 μl 250 mM HEPES buffer, pH 7.5 was added to wells A9-D12; 50 μl 200 mM KHPO4 buffer, pH 9.2 was added to wells E1-H4; 50 μl 250 mM Tris buffer, pH 10.4 was added to wells E5-H8; and 50 μl 100 mM CAPS buffer, pH 10.4 was added to wells E9-H12.
A sample of hydrogen peroxide (30%, Sigma, H1009-5 ml) was diluted to 10 μM with Nanopure water, and 100 μl added to columns 3, 4, 7, 8, 11, 12 wells A-H of the plate. 100 μl Nanopure water was added to columns 1, 2, 5, 6, 9 and 10 of the plate. The plate was incubated at room temperature for 15 minutes.
A conversion solution was made by mixing 5 ml of 1 M HEPES buffer, pH 7.5, 4.9 ml of Nanopure water and 100 μl of 100 mM D-cysteine (in Nanopure water), and […] added to all wells of a luminometer plate.
After incubation, 25 μl of sample from all wells in the plate was transferred and mixed into the corresponding wells in the luminometer plate, incubated 2-3 minutes at room temperature, and 50 μl LDR (Example 23) added. The luminometer plate was incubated for 15 minutes at room temperature, and bioluminescence detected on a GloMax® luminometer.
Additional samples were taken at 60 and 105 minutes and added to a fresh luminometer plates containing 25 μl of conversion solution in all wells. The plates were then incubated for 15 minutes at room temperature, and bioluminescence detected as previously described.

[2] = Light generation from compounds following incubation with hydrogen peroxide in different pH solutions (D-cysteine conversion, LDR); assay type: biochemical; conditions: for Signal to Background Ratios: signal with peroxide to background no peroxide
Protocol: In this experiment, various compounds were tested for their ability to detect hydrogen peroxide in different pH solutions. Several compounds are shown to give much better signal strength and signal to background ratios than PBI 3048 (Example 23). 4 mg/ml solutions of compounds PBI 4480, 4481, 4452, 4470, 4472, 3048 (FIGS. 1 and 2) were made by dissolving them in DMSO (Fluka 41641). 30 μl of the compound solutions was diluted to 1.5 ml with Nanopure water, and 50 μl aliquots added as follows into a white, 96-well luminometer plate: PBI 4481, row A1-12; PBI 4480, row B1-12; PBI 4452, row C1-12; PBI 3048, row D1-12; PBI 4472, row E1-12 and PBI 4470, row F1-12.
25 μl of 200 mM TRIS buffer, pH 7.6 was added to wells A1-F4, 25 μl of 200 mM TRIS buffer, pH 8.8 was added to wells A5-F8, and 25 μl of 200 mM Tris buffer, pH 10.4 was added […].
30% hydrogen peroxide (Sigma H 1009-5 ml) was diluted to 40 μM in Nanopure water, and 25 μl added to columns 3, 4, 7, 8, 11 and 12 of the plate. 25 μl water was added to columns 1, 2, 5, 6, 9, and 10 of the plate, and the plate incubated at room temperature for 60 minutes.
A conversion solution was made by mixing 100 μl of 100 mM D-cysteine, 1 ml Tris Buffer pH 8.8 and 8.9 ml nanopure water. After mixing, 80 μl of the solution was added to wells A1-F12 of a new luminometer plate.
After incubation, 20 μl of sample from wells A1-F12 of the first plate was transferred to the same well in the new luminometer plate. The new plate was incubated at room temperature for 5 minutes, 100 μl of LDR (Example 23) was added to wells A1-F12, and bioluminescence detected on a Glo Max® luminometer (Promega).
The RLUs for the duplicate wells were averaged. The averages for the wells containing hydrogen peroxide were compared to the wells without hydrogen peroxide at the same pH (Table 2). BZT is used to designate benzothiazole derivatives of the compounds.
The Signal to Background (S/B) ratio is used to compare assay reagents with very difference signal strengths. An assay with a higher S/B ratio is often considered a better assay than one with a smaller S/B ratio (with all other factors being relatively equal).

Question: Which results are given for `CC1(C)OB(c2ccc(COc3ccc4nc(C#N)sc4c3)cc2)OC1(C)C` [PBI 4472, 6-((4-(4,4,5,5-tetramethyl-1,3,2-dioxaborolan-2-yl)benzyl)oxy)benzo-[d]thiazole-2-carbonitrile]?
Answer: Signal to Background Ratios at 15 Minutes ([1]; CAPS pH 10.4, 15 minutes): 17.0; Net Average Signals at 15 Minutes ([1]; CAPS pH 10.4, 15 minutes): 3,154,440 RLU; Signal to Background Ratios at 60 Minutes ([1]; CAPS pH 10.4, 60 minutes): 15.4; Net Average Signals at 60 Minutes ([1]; CAPS pH 10.4, 60 minutes): 5,425,701 RLU; Signal to Background Ratios at 105 Minutes ([1]; CAPS pH 10.4, 105 minutes): 11.3; Net Average Signals at 105 Minutes ([1]; CAPS pH 10.4, 105 minutes): 7,554,957 RLU; Signal to Background Ratios at 15 Minutes ([1]; HEPES pH 7.5, 15 minutes): 3.9; Net Average Signals at 15 Minutes ([1]; HEPES pH 7.5, 15 minutes): 58,399 RLU; Signal to Background Ratios at 60 Minutes ([1]; HEPES pH 7.5, 60 minutes): 8.0; Net Average Signals at 60 Minutes ([1]; HEPES pH 7.5, 60 minutes): 159,982 RLU; Signal to Background Ratios at 105 Minutes ([1]; HEPES pH 7.5, 105 minutes): 8.2; Net Average Signals at 105 Minutes ([1]; HEPES pH 7.5, 105 minutes): 259,725 RLU; Net Average Signals at 15 Minutes ([1]; KPO4 Ph 7.4, 15 minutes): 43,867 RLU; Signal to Background Ratios at 15 Minutes ([1]; KPO4 pH 7.4, 15 minutes): 3.1; Signal to Background Ratios at 60 Minutes ([1]; KPO4 pH 7.4, 60 minutes): 4.9; Net Average Signals at 60 Minutes ([1]; KPO4 pH 7.4, 60 minutes): 102,614 RLU; Signal to Background Ratios at 105 Minutes ([1]; KPO4 pH 7.4, 105 minutes): 5.3; Net Average Signals at 105 Minutes ([1]; KPO4 pH 7.4, 105 minutes): 168,787 RLU; Signal to Background Ratios at 15 Minutes ([1]; KPO4 pH 9.2, 15 minutes): 11.0; Net Average Signals at 15 Minutes ([1]; KPO4 pH 9.2, 15 minutes): 400,087 RLU; Signal to Background Ratios at 60 Minutes ([1]; KPO4 pH 9.2, 60 minutes): 14.7; Net Average Signals at 60 Minutes ([1]; KPO4 pH 9.2, 60 minutes): 781,296 RLU; Signal to Background Ratios at 105 Minutes ([1]; KPO4 pH 9.2, 105 minutes): 14.6; Net Average Signals at 105 Minutes ([1]; KPO4 pH 9.2, 105 minutes): 1,380,626 RLU; Signal to Background Ratios at 15 Minutes ([1]; TRIS pH 10.4, 15 minutes): 32.9; Net Average Signals at 15 Minutes ([1]; TRIS pH 10.4, 15 minutes): 1,530,303 RLU; Signal to Background Ratios at 60 Minutes ([1]; TRIS pH 10.4, 60 minutes): 34.2; Net Average Signals at 60 Minutes ([1]; TRIS pH 10.4, 60 minutes): 3,777,236 RLU; Signal to Background Ratios at 105 Minutes ([1]; TRIS pH 10.4, 105 minutes): 26.5; Net Average Signals at 105 Minutes ([1]; TRIS pH 10.4, 105 minutes): 6,279,007 RLU; Signal to Background Ratios at 15 Minutes ([1]; Tris pH 7.4, 15 minutes): 6.6; Net Average Signals at 15 Minutes ([1]; Tris pH 7.4, 15 minutes): 121,480 RLU; Signal to Background Ratios at 60 Minutes ([1]; Tris pH 7.4, 60 minutes): 13.2; Net Average Signals at 60 Minutes ([1]; Tris pH 7.4, 60 minutes): 371,397 RLU; Signal to Background Ratios at 105 Minutes ([1]; Tris pH 7.4, 105 minutes): 13.6; Net Average Signals at 105 Minutes ([1]; Tris pH 7.4, 105 minutes): 658,967 RLU; Signal to Background Ratios ([2]; pH 7.6): 18.0; averaged RLUs (bioluminescence) ([2]; pH 7.6 TRIS buffer, No H2O2, 60 minutes): 102,925 RLU; averaged RLUs (bioluminescence) ([2]; pH 7.6 TRIS buffer, With H2O2 (25 μl of 40 μM added), 60 minutes): 1,854,434 RLU; Signal to Background Ratios ([2]; pH 8.8): 31.6; averaged RLUs (bioluminescence) ([2]; pH 8.8 TRIS buffer, No H2O2, 60 minutes): 163,710 RLU; averaged RLUs (bioluminescence) ([2]; pH 8.8 TRIS buffer, With H2O2 (25 μl of 40 μM added), 60 minutes): 5,175,361 RLU; Signal to Background Ratios ([2]; pH 10.4): 24.1; averaged RLUs (bioluminescence) ([2]; pH 10.4 Tris buffer, No H2O2, 60 minutes): 337,921 RLU; averaged RLUs (bioluminescence) ([2]; pH 10.4 Tris buffer, With H2O2 (25 μl of 40 μM added), 60 minutes): 8,159,216 RLU
